PMC6110851, “An Optimized MicroPET Imaging Method for the Distribution and Synergies of Natural Products” (Frontiers in Pharmacology, 2018)
Like-named read-outs stand apart in the source and are kept apart here.

Legend:
[1] = MicroPET distribution of [^18F]-GA after PG polysaccharides intervention; format: in vivo, mice; settings: for tissue uptake at 1 h / tissue uptake at 168 h: male, Kunming, mouse, lungs, po; for tissue uptake at 1 h: PG polysaccharides orally 1 h before [^18F]-GA, read-out: %ID/g of [^18F]-GA in the lungs, OA; for tissue uptake at 168 h: PG polysaccharides orally for 7 days, read-out: %ID/g of [^18F]-GA in the lungs, LA
Procedure: The mice were grouped by weight and housed in cages of the climate control room (25°C), with a photoperiod 12:12-h. During feeding, mice were free to access food and water. Mice were fasted for 24 h before the experiment. The mice were anesthetized with 4% isoflurane while preparing for scanning ([Constantinescu et al., 2013b]; [Cui et al., 2017]). Eighteen healthy male Kunming mice, weighing 20 ± 2 g, were divided into three groups, which were control group, once-administered (OA) group and long-term administration (LA) group. In the OA group, 1 h before the administration of [^18F]-GA, the mice were orally treated with PG polysaccharides. In the LA group, the mice were orally given the PG polysaccharides for 7 days, but not before the administration of [^18F]-GA.
Rice received a tail vein injection (8.67 ± 2.14 MBq/μg) of [^18F]-GA and placed in the scanner bed and mouse-imaging room immediately ([Constantinescu et al., 2013b]; [O’Doherty et al., 2017]). Firstly, 2 h PET scanning was performed using an Inveon-dedicated PET scanner. The average delay between injection and starting of PET scanning was 3.5 min. Rice were maintained stable under 4% isoflurane anesthesia throughout scanning. The PET list-mode data were dynamically classified into 23 3D sinograms of span and three ring difference. After Fourier recombination, the data were reconstructed using a 2D ordered-subset expectation maximization algorithm. Random events were excluded before reconstruction. The response of detector is normalized using a component-based approach. All dynamic images were corrected for radioactive decay automatically. The PET images were reconstructed by a cone beam algorithm into 480 × 480 × 632 image arrays. After the reconstruction, images were spatially transformed to match the PET images ([Constantinescu et al., 2013a],[b]).
The reconstruction of the image was performed using the PMOD software (PMOD Technologies). The 3D volumes of interest (VOIs) were drawn manually of the following organs: brain, heart, liver, lungs, kidneys, cortical bone, and gallbladder. The organs were carefully identified and VOIs were drawn as irregular contours on high-resolution PET images obtained from each mouse ([Constantinescu et al., 2013b]; [Garg et al., 2017]). The size of each VOI was less than the actual size of each organ to minimize the effects of PET on adjacent organ spills. The VOIs drawing was verified by a second operator. The VOIs of cortical bone were generated by first using PET image to depict the entire femur bone ([Constantinescu et al., 2013b]). The VOI was transferred to a dynamic PET image and the mean time-activity curve (TAC) of the decay correction was extracted for each target organ ([Constantinescu et al., 2013b]).

NF-κB = NF-κB dual luciferase reporter assay in TNF-stimulated HEK 293 T cells; format: cell-based; settings: after decay of radioactivity, HEK 293T stimulated by TNF-α
Procedure: The separation process was repeated five times for use in the activity tests. […] After 48 h, radioactive elements had decayed, the residues were stored at 4°C for anti-inflammatory activity tests ([Dong et al., 2013]; [Qingxin et al., 2016]).
HEK 293 T cells were cultured in standard Dulbecco’s modified Eagle’s medium (DMEM; Hyclone) supplemented with 10% fetal bovine serum (FBS; Biological Industries). The cells were placed in 96-well plates at 37°C in an air-CO2 environment (95/5% v/v). Cells were grown to 80–90% confluence and incubated for 12 h in DMEM without FBS. Transfection (20 h) was performed according to the manufacturer’s instructions. HEK 293 T cells were pretreated with drugs 1 h prior to TNF-stimulation (5 ng/mL) for 6 h. Dex (10^-5mol/L) was used as a positive control for NF-κB inhibition. The NF-κB activity was assayed using dual luciferase reporter assay system (Promega) according to the manufacturer’s instructions ([Qingxin et al., 2016]). Antiinflammatory activity was calculated as the ratio of firefly luciferase activity to Renilla luciferase activity (internal control).

[2] = Safety evaluation during the MicroPET experiment (vital signs, electrocardiograms); format: in vivo, mice

tissue uptake at 1 h ([1]; mice, Time(s) 1950): 3.95 %ID/g | tissue uptake at 1 h ([1]; mice, Time(s) 2250): 3.79 %ID/g | tissue uptake at 1 h ([1]; mice, Time(s) 2700): 3.54 %ID/g | tissue uptake at 1 h ([1]; mice, Time(s) 3300): 3.17 %ID/g | tissue uptake at 1 h ([1]; mice, Time(s) 3900): 3.06 %ID/g | tissue uptake at 1 h ([1]; mice, Time(s) 4500): 3.07 %ID/g | tissue uptake at 1 h ([1]; mice, Time(s) 5100): 2.96 %ID/g | tissue uptake at 1 h ([1]; mice, Time(s) 5700): 2.88 %ID/g | tissue uptake at 1 h ([1]; mice, Time(s) 6300): 2.95 %ID/g | tissue uptake at 1 h ([1]; mice, Time(s) 6900): 2.85 %ID/g | tissue uptake at 168 h ([1]; mice, Time(s) 60): 8.74 %ID/g | tissue uptake at 168 h ([1]; mice, Time(s) 180): 4.38 %ID/g | tissue uptake at 168 h ([1]; mice, Time(s) 300): 3.63 %ID/g | tissue uptake at 168 h ([1]; mice, Time(s) 420): 3.15 %ID/g | tissue uptake at 168 h ([1]; mice, Time(s) 540): 2.85 %ID/g | tissue uptake at 168 h ([1]; mice, Time(s) 660): 2.9 %ID/g | tissue uptake at 168 h ([1]; mice, Time(s) 780): 2.51 %ID/g | tissue uptake at 168 h ([1]; mice, Time(s) 900): 2.49 %ID/g | tissue uptake at 168 h ([1]; mice, Time(s) 1020): 2.35 %ID/g | tissue uptake at 168 h ([1]; mice, Time(s) 1140): 2.19 %ID/g | tissue uptake at 168 h ([1]; mice, Time(s) 1350): 2.16 %ID/g | tissue uptake at 168 h ([1]; mice, Time(s) 1650): 2.06 %ID/g | tissue uptake at 168 h ([1]; mice, Time(s) 1950): 1.89 %ID/g | tissue uptake at 168 h ([1]; mice, Time(s) 2250): 1.78 %ID/g | tissue uptake at 168 h ([1]; mice, Time(s) 2700): 1.7 %ID/g | tissue uptake at 168 h ([1]; mice, Time(s) 3300): 1.48 %ID/g | tissue uptake at 168 h ([1]; mice, Time(s) 3900): 1.33 %ID/g | tissue uptake at 168 h ([1]; mice, Time(s) 4500): 1.24 %ID/g | tissue uptake at 168 h ([1]; mice, Time(s) 5100): 1.18 %ID/g | tissue uptake at 168 h ([1]; mice, Time(s) 5700): 1.06 %ID/g | tissue uptake at 168 h ([1]; mice, Time(s) 6300): 1.11 %ID/g | tissue uptake at 168 h ([1]; mice, Time(s) 6900): 1.05 %ID/g | %ID/g of [^18F]-GA in the lungs, Con ([1]; mice, control group, Time(s) 660): 2.45 %ID/g | change of [^18F]-GA concentration in other organs after PG polysaccharides intervention ([1]; organs other than lung): no significant change in other organs
SMILES: CC1(C)[C@@H](O)CC[C@]2(C)[C@H]3C(=O)C=C4[C@@H]5C[C@@](C)(C(=O)NCCCC[18F])CC[C@]5(C)CC[C@@]4(C)[C@]3(C)CC[C@@H]12 [[^18F]-GA, [^18F]-Glycyrrhetinic acid]
inhibition of NF-κB activity (NF-κB; high concentration): significant inhibition of NF-κB activity | anti-inflammatory activity (NF-κB reporter) (NF-κB; low concentration): weak anti-inflammatory activity | inhibition of NF-κB activity (NF-κB; medium concentration): significant inhibition of NF-κB activity | change in vital signs or electrocardiograms [2]: no change in vital signs or electrocardiograms significantly
